Test results reported in patent US12622895B2, “Anti-neurodegenerative combinations and use for treatment of neurodegenerative diseases” (ALTO NEUROSCIENCE, INC., priority 2018, dated 2026).
Read-outs that look alike come from different tables or passages of the source.

Assays:
[1] = test system: patients; settings: in vivo; cited from earlier work
[2] = target: alpha-synuclein (Homo sapiens, UniProt P37840); settings: cited from earlier work
[3] = test system: subjects; settings: in vivo
[4] = test system: mouse PD model; settings: cited from earlier work
[5] = test system: α-synuclein in peripheral blood exosomes; settings: PD patients, approved therapeutic doses; cited from earlier work
[6] = target: human wild-type alpha-synuclein (Homo sapiens, UniProt P37840); settings: by H2O2 plus cytochrome c; cited from earlier work
[7] = test system: PD patients; settings: doses approved for the motor symptoms of PD; 535 PD patients; cited from earlier work
[8] = test system: patients; settings: 5 mg/day of pramipexole, cited from earlier work
[9] = test system: human neuroblastoma SH-SY5Y cells; settings: cited from earlier work
[10] = test system: Parkinsonian patient; settings: one patient, cited from earlier work
[11] = test system: animals; settings: cited from earlier work
[12] = test system: patients with secondary progressive multiple sclerosis; settings: high-dose, 140 patients, cited from earlier work
[13] = test system: brain cell systems; settings: cited from earlier work
[14] = test system: A53T α-synuclein-induced neurodegeneration; settings: cited from earlier work
[15] = test system: patients with PD; settings: 25 mg-50 mg, alone or with levodopa; cited from earlier work
[16] = test system: mice that received 6-hydroxydopamine; settings: injection, 30 mg/kg; cited from earlier work
[17] = test system: Engrailed mutant mice; settings: cited from earlier work
[18] = test system: rat corticostriatal slices; settings: 0.3, 1, 3 and 10 μM; cited from earlier work
[19] = test system: MPTP-treated mice; settings: 20 mg/kg; cited from earlier work
[20] = test system: rodent; settings: fluoxetine added to pramipexole; cited from earlier work
[21] = test system: MPTP induced damage; settings: toxin-induced model of PD; cited from earlier work
[22] = test system: 6-OHDA induced damage; settings: toxin-induced model of PD; cited from earlier work
[23] = test system: Caenorhabditis elegans; settings: C. elegans; cited from earlier work
[24] = test system: rodents; settings: large doses, acute systemic administration; cited from earlier work

**Q.** Which “side effects of the approved doses, often dose-limiting” value [1] does the source give for `CCCN[C@H]1CCc2nc(N)sc2C1` [Pramipexole, (S)-6-propylamino-4,5,6,7-tetrahydro-1,3-benzothiazole-2-amine] here?
**A.** The value was “nausea, vomiting, somnolence, confusion, postural hypotension, and hallucinations as well as gastrointestinal disturbances”.

**Q.** And the “oligomerization (and aggregation) of alpha-synuclein in vitro” value [2]?
**A.** The value was “diminishes synuclein oligomer formation”.

**Q.** And the “first intolerable dose reached” value ([3]; human)?
**A.** Its value is “All subjects reached FID-1”.

**Q.** What about the dose limiting toxicity [3] of the same compound?
**A.** The dose limiting toxicity was “gastro-intestinal adverse events”.

**Q.** And the “toxic effects of rotenone on dopaminergic neurons” value ([4]; mouse PD model)?
**A.** The value was “inhibits the toxic effects of rotenone on dopaminergic neurons”.

**Q.** What about the immunoreactivity for alpha-synuclein ([4]; rotenone mouse PD model) of the same compound?
**A.** Its immunoreactivity for alpha-synuclein is “reducing immunoreactivity for alpha-synuclein”.

**Q.** What about the “magnitude of the effect on alpha-synuclein expression” value [5] of the same compound?
**A.** Its value is “small”.

**Q.** And the “in vitro oligomerization of human wild-type alpha-synuclein” value [6]?
**A.** The value was “decreases”.

**Q.** What about the “neuroprotective (disease modifying) activity” value [7] of the same compound?
**A.** The value was “failed to evidence neuroprotective (i.e., disease modifying) activity”.

**Q.** And the “nausea, patients” value [8]?
**A.** Its value is 76%.

**Q.** What about the “vomiting, patients” value [8] of the same compound?
**A.** The value was 39%.

**Q.** And the “patients not able to complete the study” value ([8]; presumably intolerable GI adverse events)?
**A.** The value was 36%.

**Q.** And the aggregation of alpha-synuclein [9]?
**A.** Its aggregation of alpha-synuclein is “inhibit the aggregation of alpha-synuclein”.

**Q.** And the hallucinations ([10]; extended-release formulation, pramipexole 4.5 mg/day with levodopa, entcapone, selegiline and zonisamide)?
**A.** Its hallucinations is “induce hallucinations”.

**Q.** And the hallucinations ([10]; immediate release formulation, same combination)?
**A.** Its hallucinations is “not”.

**Q.** With `CCC(C)(C)C(=O)O[C@H]1C[C@@H](C)C=C2C=C[C@H](C)[C@H](CC[C@@H]3C[C@@H](O)CC(=O)O3)[C@H]21` [simvastatin, (1S,3R,7S,8S,8aR)-8-{2-[(2R,4R)-4-hydroxy-6-oxotetrahydro-2H-pyran-2-yl]ethyl}-3,7-dimethyl-1,2,3,7,8,8a-hexahydronaphthalen-1-yl 2,2-dimethylbutanoate] as the compound, how does the “consequences of dopaminergic neurotoxin MPTP” value [11] read?
**A.** The value was “protect against the deleterious consequences of dopaminergic neurotoxin MPTP”.

**Q.** What about the tolerability and safety [12] of the same compound?
**A.** Its tolerability and safety is “well tolerated and safe”.

**Q.** What about the “annualised rate of whole-brain atrophy” value ([12]; versus placebo) of the same compound?
**A.** The value was “reduced the annualised rate of whole-brain atrophy compared with placebo”.

**Q.** And the dopaminergic neurodegeneration ([13]; 6-OHDA-lesioned cell model (Xu et al. 2013))?
**A.** Its dopaminergic neurodegeneration is “robust neuroprotection against dopaminergic neurodegeneration”.

**Q.** And the “consequences of the dopaminergic neurotoxin 6-OHDA” value ([13]; brain cell systems)?
**A.** The value was “protect against the deleterious consequences of the dopaminergic neurotoxin 6-hydroxydopamine”.

**Q.** Which “oligomerization (and aggregation) of alpha-synuclein in vitro” value [2] does the source give for `NS(=O)(=O)Cc1noc2ccccc12` [zonisamide, benzo[d]isoxazol-3-ylmethanesulfonamide] here?
**A.** Its value is “inhibits the in vitro oligomerization and aggregation of alpha-synuclein”.

**Q.** And the “duration of the effect” value ([14]; after transgene injection)?
**A.** Its value is “lasted at least eight weeks”.

**Q.** And the “survival of nigrostriatal dopamine neurons” value ([14]; oral, 40 mg/kg/day)?
**A.** The value was “no impact”.

**Q.** And the pace of degeneration ([14]; oral, 40 mg/kg/day, four weeks after injection of the viral vector, versus control group)?
**A.** Its pace of degeneration is “significantly delayed the pace of degeneration”.

**Q.** What about the motor symptoms [15] of the same compound?
**A.** Its motor symptoms is “improve motor symptoms”.

**Q.** And the “loss of nigral dopamine neurons” value [16]?
**A.** The value was “prevented the loss of nigral dopamine neurons”.

**Q.** What about the “survival of nigrostriatal dopaminergic neurons, striatal terminals and motor function” value ([17]; chronic administration, versus saline) of the same compound?
**A.** Its value is “improved the survival of nigrostriatal dopaminergic neurons as well as their striatal dopaminergic terminals and motor function”.

**Q.** And the “brain-derived neurotrophic factor content in striatum and ventral midbrain” value ([17]; versus saline-treated controls)?
**A.** The value was “increased”.

**Q.** What about the “rotenone-induced toxicity (loss of corticostriatal field potential amplitude)” value [18] of the same compound?
**A.** The value was “significantly reduced the rotenone-induced toxicity”.

**Q.** And the “loss of nigral TH-positive neurons” value [19]?
**A.** The value was “reduced the loss of nigral TH-positive neurons”.

**Q.** And the striatal dopamine depletion [19]?
**A.** The striatal dopamine depletion was “attenuating the associated striatal dopamine depletion”.

**Q.** For `CNCCC(Oc1ccc(C(F)(F)F)cc1)c1ccccc1` (stereo not drawn) [fluoxetine, 1-methylamino-3-phenyl-3-[4-(trifluoromethyl)phenoxy]propane], which “activity of pramipexole in the forced swimming test” value [20] is on record?
**A.** Its value is “enhance the activity of pramipexole”.

**Q.** And the MPTP induced damage [21]?
**A.** The MPTP induced damage was “protect against”.

**Q.** And the 6-OHDA induced damage [22]?
**A.** The 6-OHDA induced damage was “protect against”.

**Q.** And the amyloid-β oligomers [23]?
**A.** The amyloid-β oligomers was “reducing amyloid-β oligomers”.

**Q.** What about the amyloid-β-induced paralysis [23] of the same compound?
**A.** Its amyloid-β-induced paralysis is “significantly delay”.

**Q.** And the life span [23]?
**A.** The life span was “extend life span”.

**Q.** And the thermal stress resistance [23]?
**A.** The thermal stress resistance was “increase thermal stress resistance”.

**Q.** And the “extracellular concentrations of norepinephrine and dopamine” value [24]?
**A.** The value was “significant increase”.
